Laboratory results as given in PMC9299836 (eLife, 2022).
Several values for one entry are separate records, joined by “and”; a condition that tells them apart may be missing. Identical values can stand only once.

Columns and labels:
mGluR2 [1] = target: T1, mGluR2 (Mus musculus, UniProt Q14BI2); test: Live-cell FRET, SNAP-m2 (VFT domain) inter-subunit sensor in HEK293T cells; settings: for Mean normalized FRET response, SNAP-m2 NAM DRC: glutamate + 10μM modulator, maximal response normalized to 1mM glutamate;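 for all read-outs here: apparent FRET efficiency from whole-membrane ROIs of single cells, corrected for donor bleed-through and background, ΔFRET as treatment minus pretreatment signal, recorded at room temperature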
T1 sequence (Q14BI2 19-872): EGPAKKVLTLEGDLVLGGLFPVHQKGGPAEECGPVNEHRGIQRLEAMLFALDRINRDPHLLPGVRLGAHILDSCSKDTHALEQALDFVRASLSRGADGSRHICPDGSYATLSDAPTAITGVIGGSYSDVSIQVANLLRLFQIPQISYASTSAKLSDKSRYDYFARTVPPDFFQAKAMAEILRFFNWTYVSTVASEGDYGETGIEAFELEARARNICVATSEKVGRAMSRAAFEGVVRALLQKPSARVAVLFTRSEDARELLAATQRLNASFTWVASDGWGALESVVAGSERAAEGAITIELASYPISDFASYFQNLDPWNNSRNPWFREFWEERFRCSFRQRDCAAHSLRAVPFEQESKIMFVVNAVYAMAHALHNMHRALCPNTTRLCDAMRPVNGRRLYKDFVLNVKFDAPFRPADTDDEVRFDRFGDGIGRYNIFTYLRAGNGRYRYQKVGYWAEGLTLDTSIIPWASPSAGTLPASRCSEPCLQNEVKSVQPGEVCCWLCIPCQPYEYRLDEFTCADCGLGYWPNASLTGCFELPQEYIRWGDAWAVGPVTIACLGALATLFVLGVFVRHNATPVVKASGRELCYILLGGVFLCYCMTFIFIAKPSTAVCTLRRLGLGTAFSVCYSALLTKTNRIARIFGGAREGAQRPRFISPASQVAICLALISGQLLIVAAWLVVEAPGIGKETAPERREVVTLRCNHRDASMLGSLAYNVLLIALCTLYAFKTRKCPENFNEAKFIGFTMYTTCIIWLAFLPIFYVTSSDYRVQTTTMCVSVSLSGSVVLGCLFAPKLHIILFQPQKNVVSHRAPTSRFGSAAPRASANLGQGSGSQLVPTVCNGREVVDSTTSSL

mGluR2 [2] = target: mGluR2 (Mus musculus, UniProt Q14BI2, INS715F); test: Live-cell FRET, azi-ECL2 (7TM domain, extracellular loop 2) sensor in HEK293T cells; settings: for Mean normalized azi-ECL2 FRET response: glutamate + 10μM modulator, maximal response normalized to 1mM glutamate;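 for all read-outs here: Cy3/Cy5 click-labeled sensor, whole-membrane ROIs per cell, apparent FRET after bleed-through correction, ΔFRET as treatment minus pre-treatment signal, at room temperature, at least three biological replicates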
mGluR2 (Mus musculus, UniProt Q14BI2, INS715F), sequence (Q14BI2 with tags, fused parts or gaps INS715F): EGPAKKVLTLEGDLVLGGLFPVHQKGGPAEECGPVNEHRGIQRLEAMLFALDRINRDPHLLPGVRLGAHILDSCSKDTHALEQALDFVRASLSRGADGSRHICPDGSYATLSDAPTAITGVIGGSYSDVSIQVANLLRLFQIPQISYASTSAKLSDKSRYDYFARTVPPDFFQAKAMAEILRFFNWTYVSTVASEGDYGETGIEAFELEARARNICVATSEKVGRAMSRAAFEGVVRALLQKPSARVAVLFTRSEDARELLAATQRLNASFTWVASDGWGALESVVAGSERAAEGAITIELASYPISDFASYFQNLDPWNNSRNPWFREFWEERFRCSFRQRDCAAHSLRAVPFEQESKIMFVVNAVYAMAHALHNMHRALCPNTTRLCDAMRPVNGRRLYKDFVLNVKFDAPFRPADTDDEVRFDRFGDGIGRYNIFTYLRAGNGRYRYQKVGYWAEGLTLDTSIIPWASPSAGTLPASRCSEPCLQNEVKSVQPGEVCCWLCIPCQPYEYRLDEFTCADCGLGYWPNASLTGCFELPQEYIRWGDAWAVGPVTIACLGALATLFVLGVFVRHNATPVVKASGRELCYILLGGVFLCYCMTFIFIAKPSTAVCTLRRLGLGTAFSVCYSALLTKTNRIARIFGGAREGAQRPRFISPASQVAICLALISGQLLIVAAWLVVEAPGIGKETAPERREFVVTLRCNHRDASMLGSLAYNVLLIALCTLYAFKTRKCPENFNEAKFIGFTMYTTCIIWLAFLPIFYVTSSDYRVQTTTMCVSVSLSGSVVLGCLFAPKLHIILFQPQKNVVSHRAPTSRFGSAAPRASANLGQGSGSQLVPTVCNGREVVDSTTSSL

mGluR2 [3] = target: T1, mGluR2; test: Functional calcium imaging, SNAP-mGluR2 (no FLAG-tag) with chimeric G protein Gqo5 in HEK293T cells; assay type: cell-based; design: Full length mGluR2 construct with an amber codon (TAG) mutation of amino acid A548 (azi-CRD) or N-terminal SNAP-tag (SNAP-mGluR2); host or cells: HEK293T; settings: for Intracellular Ca2+ Response (normalized to 1mM glutamate), Mean: Glutamate + 15nM MNI-137
mGluR2 [4] = target: mGluR2 (Mus musculus, UniProt Q14BI2, A548F); test: Live-cell FRET, azi-CRD (cysteine-rich domain) sensor in HEK293T cells; settings: for azi-CRD normalized FRET response, Mean / azi-CRD normalized FRET response, individual cell: Glutamate + 10μM modulator (NAM); for azi-CRD normalized FRET response, Mean: maximal response normalized to 1mM glutamate; for azi-CRD normalized FRET response, individual cell: single-cell replicate
mGluR2 (Mus musculus, UniProt Q14BI2, A548F), sequence (Q14BI2 19-872 A548F): as the sequence (Q14BI2 19-872) above, with A530F counted along it

[5] = 10μM MNI-137, ([1 mM glutamate + modulator] - [1 mM glutamate]) × 100

For MNI-137, the “SNAP-m2 - ΔEfficacy, Mean ΔEfficacy” value (mGluR2 [1]; [5]) was -14.5253, the “SNAP-m2 - ΔEfficacy, individual cell responses” value (mGluR2 [1]; 10μM MNI-137, single cells) was -10.7213 and -26.7573 and -13.8479 and -17.3754 and -14.1858 and -21.1325 and -12.0197 and -12.3419 and -6.834 and -6.212 and -2.3686 and -0.3026 and -3.79 and -23.2696 and -18.431 and -18.5097 and -23.731 and -16.2088 and -24.4772 and -17.7281 and -7.524 and -21.7885 and the “Mean max response (normalized max ΔFRET)” value (mGluR2 [1]; SNAP-m2, 1 mM glutamate + 10 μM modulator, normalized to 1 mM glutamate) was 0.85. For the same substance, the “Mean ΔPotency” value (mGluR2 [1]; SNAP-m2, 10μM modulator, (([modulator + glutamate]EC50 – [glutamate] EC50)/[glutamate] EC50) × 100) was 44.8085, the “Mean ΔEfficacy” value (mGluR2 [1]; SNAP-m2, 10μM modulator, ([1 mM glutamate + modulator] - [1 mM glutamate]) × 100) was -14.5253 and the “Hill slope of glutamate titration” value (mGluR2 [1]; SNAP-m2 sensor, + 10 μM modulator) was “–1.61”. For the same substance, the “Live-cell FRET max response normalized to 1mM glutamate” value (mGluR2 [1]; SNAP-m2 sensor, Glutamate + 10μM MNI-137, individual values (N=22)) was 0.8581 and 0.7887 and 0.8798 and 0.8766 and 0.9317 and 0.9379 and 0.9763 and 0.997 and 0.9621 and 0.7673 and 0.8157 and 0.8149 and 0.7627 and 0.8379 and 0.7552 and 0.8227 and 0.9248 and 0.7821 and 0.8928 and 0.7324 and 0.8615 and 0.8263, the “Mean normalized FRET response, SNAP-m2 NAM DRC” value (“Mean normalized FRET response” below) (mGluR2 [1]; log[Glutamate] (M) -3) was -0.8548 and the “Mean normalized FRET response” value (mGluR2 [1]; log[Glutamate] (M) -4.1549) was -0.777. The “Mean normalized FRET response” value (mGluR2 [1]; log[Glutamate] (M) -4.52288) was -0.6231, the “Mean normalized FRET response” value (mGluR2 [1]; log[Glutamate] (M) -5) was -0.2568 and the “Mean normalized FRET response” value (mGluR2 [1]; log[Glutamate] (M) -5.82391) was -0.04212. The “Mean normalized FRET response” value (mGluR2 [1]; log[Glutamate] (M) -6.52288) was 0, the “Mean normalized FRET response” value (mGluR2 [1]; log[Glutamate] (M) -7) was 0 and the “Mean normalized FRET response” value (mGluR2 [1]; log[Glutamate] (M) -7.69897) was 0. For the same substance, the “Mean normalized FRET response” value (mGluR2 [1]; log[Glutamate] (M) -4.69897) was -0.4828, the “azi-ECL2 - ΔEfficacy, Mean ΔEfficacy” value (mGluR2 [2]; [5]) was -22.0861 and the “Mean ΔPotency” value (mGluR2 [2]; 10μM modulator, (([modulator + glutamate]EC50 – [glutamate] EC50)/[glutamate] EC50) × 100) was 179.936. For the same substance, the “ΔPotency, individual cell responses” value (mGluR2 [2]; 10μM modulator, single cells, (([modulator + glutamate]EC50 – [glutamate] EC50)/[glutamate] EC50) × 100) was 208.526 and 269.842 and 265.754 and 289.307 and 19.9066 and 99.1307 and 118.401 and 168.622, the “Mean max response (normalized max ΔFRET)” value (mGluR2 [2]; azi-ECL2, 1 mM glutamate + 10 μM modulator, normalized to 1 mM glutamate) was 0.78 and the “Hill slope of glutamate titration” value (mGluR2 [2]; azi-ECL2 sensor, + 10 μM modulator) was 1.32. For the same substance, the “Mean normalized azi-ECL2 FRET response” value (mGluR2 [2]; log[Glutamate] (M) -3) was 0.7791, the “Mean normalized azi-ECL2 FRET response” value (mGluR2 [2]; log[Glutamate] (M) -4.1549) was 0.6793 and the “Mean normalized azi-ECL2 FRET response” value (mGluR2 [2]; log[Glutamate] (M) -4.52288) was 0.5808. For the same substance, the “Mean normalized azi-ECL2 FRET response” value (mGluR2 [2]; log[Glutamate] (M) -5) was 0.314, the “Mean normalized azi-ECL2 FRET response” value (mGluR2 [2]; log[Glutamate] (M) -5.82391) was 0.01822 and the “Mean normalized azi-ECL2 FRET response” value (mGluR2 [2]; log[Glutamate] (M) -6.52288) was 0. The “Mean normalized azi-ECL2 FRET response” value (mGluR2 [2]; log[Glutamate] (M) -7) was 0, the “Mean normalized azi-ECL2 FRET response” value (mGluR2 [2]; log[Glutamate] (M) -7.69897) was 0 and the “Mean normalized azi-ECL2 FRET response” value (mGluR2 [2]; log[Glutamate] (M) -4.69897) was 0.4672. The “Effect on receptor activation (calcium imaging) in the presence of glutamate” value (mGluR2 [3]; 10 μM NAM) was “block receptor activation”, the “Intracellular Ca2+ Response, % 1mM Glutamate” value (mGluR2 [3]; 1mM Glutamate + 15nM MNI-137, individual experiments) was 73.406% and 76.302% and 82.093% and the “Mean ΔEfficacy of glutamate” value (mGluR2 [3]; Ca2+ response, 1 mM glutamate + 15 nM modulator, ([1 mM glutamate + modulator] - [1 mM glutamate]) × 100) was -22.7329. The “ΔEfficacy of glutamate, individual experiments” value (mGluR2 [3]; Ca2+ response, 1 mM glutamate + 15 nM modulator, single replicate) was -23.6976 and -17.9069 and -26.5942, the “Mean ΔPotency of glutamate” value (mGluR2 [3]; Ca2+ response, glutamate + 15 nM modulator, (([modulator + glutamate]EC50 – [glutamate]EC50)/[glutamate]EC50) × 100) was 30.7718 and the “ΔPotency of glutamate, individual experiments” value (mGluR2 [3]; Ca2+ response, glutamate + 15 nM modulator, single replicate) was 55.4467 and 26.9701 and 9.898. The “Intracellular Ca2+ Response (normalized to 1mM glutamate), Mean” value (mGluR2 [3]; log[Glutamate] (M) -3) was 0.7727, the “Intracellular Ca2+ Response (normalized to 1mM glutamate), Mean” value (mGluR2 [3]; log[Glutamate] (M) -3.60206) was 0.7226 and the “Intracellular Ca2+ Response (normalized to 1mM glutamate), Mean” value (mGluR2 [3]; log[Glutamate] (M) -4.1549) was 0.6149. For the same substance, the “Intracellular Ca2+ Response (normalized to 1mM glutamate), Mean” value (mGluR2 [3]; log[Glutamate] (M) -4.52288) was 0.4711, the “Intracellular Ca2+ Response (normalized to 1mM glutamate), Mean” value (mGluR2 [3]; log[Glutamate] (M) -5) was 0.2107 and the “Intracellular Ca2+ Response (normalized to 1mM glutamate), Mean” value (mGluR2 [3]; log[Glutamate] (M) -5.39794) was 0.08277. The “Intracellular Ca2+ Response (normalized to 1mM glutamate), Mean” value (mGluR2 [3]; log[Glutamate] (M) -5.82391) was 0.01181, the “Intracellular Ca2+ Response (normalized to 1mM glutamate), Mean” value (mGluR2 [3]; log[Glutamate] (M) -6.52288) was 0 and the “Intracellular Ca2+ Response (normalized to 1mM glutamate), Mean” value (mGluR2 [3]; log[Glutamate] (M) -7) was 0. For the same substance, the “azi-CRD - ΔEfficacy, Mean ΔEfficacy” value (mGluR2 [4]; [5]) was -14.0141, the “azi-CRD - ΔEfficacy, individual cell responses” value (mGluR2 [4]; 10μM MNI-137, single cells) was -19.4456 and -7.384 and -10.1516 and 1.621 and -9.317 and -10.1717 and -14.3919 and -15.5722 and -14.8125 and -10.0435 and -13.9489 and -17.5047 and -9.853 and -8.072 and -15.0625 and -34.4877 and -19.6812 and -23.9757 and the “azi-CRD normalized FRET response, Mean” value (mGluR2 [4]; log[Glutamate] (M) -3) was 0.8599. The “azi-CRD normalized FRET response, Mean” value (mGluR2 [4]; log[Glutamate] (M) -4.52288) was 0.6022, the “azi-CRD normalized FRET response, Mean” value (mGluR2 [4]; log[Glutamate] (M) -5) was 0.3809 and the “azi-CRD normalized FRET response, Mean” value (mGluR2 [4]; log[Glutamate] (M) -5.39794) was 0.1786. The “azi-CRD normalized FRET response, individual cell” value (mGluR2 [4]; log[Glutamate] (M) -5.39794) was 0.1624 and 0.1634 and 0.1646 and 0.1674 and 0.1243 and 0.1237 and 0.1526 and 0.2062 and 0.1399 and 0.1742 and 0.1692 and 0.2509 and 0.1433 and 0.1979 and 0.2166 and 0.2171 and 0.2594 and 0.1653 and 0.2159 and 0.1911 and 0.1708 and 0.1695 and 0.153, the “azi-CRD normalized FRET response, Mean” value (mGluR2 [4]; log[Glutamate] (M) -5.82391) was 0.06813 and the “azi-CRD normalized FRET response, individual cell” value (mGluR2 [4]; log[Glutamate] (M) -5.82391) was 0.04445 and 0.05893 and 0.04553 and 0.06348 and 0.04636 and 0.04299 and 0.07924 and 0.06124 and 0.04784 and 0.04123 and 0.06211 and 0.06632 and 0.1186 and 0.05696 and 0.08797 and 0.1273 and 0.06713 and 0.0889 and 0.0871 and 0.09832 and 0.05971 and 0.05629 and 0.07113 and 0.07112 and 0.06208 and 0.06258 and 0.06477. The “azi-CRD normalized FRET response, Mean” value (mGluR2 [4]; log[Glutamate] (M) -6.52288) was 0.03124, the “azi-CRD normalized FRET response, individual cell” value (mGluR2 [4]; log[Glutamate] (M) -6.52288) was 0.0188 and 0.01987 and 0.01609 and 0.02693 and 0.05479 and 0.05033 and 0.00719 and 0.0225 and 0.06219 and 0.01914 and 0.02051 and 0.02647 and 0.05278 and 0.03127 (2×) and 0.02714 and 0.04081 and 0.0402 and 0.04434 and 0.02897 and 0.03138 and 0.03664 and 0.02295 and the “azi-CRD normalized FRET response, Mean” value (mGluR2 [4]; log[Glutamate] (M) -7) was 0. For the same substance, the “azi-CRD normalized FRET response, individual cell” value (mGluR2 [4]; log[Glutamate] (M) -7) was 0, the “Hill slope of glutamate titration” value (mGluR2 [4]; azi-CRD sensor, + 10 μM modulator) was 1.10 and the “Live-cell FRET max response normalized to 1mM glutamate” value (mGluR2 [4]; azi-CRD sensor, Glutamate + 10μM MNI-137, individual values (N=18)) was 0.9068 and 0.8983 and 0.8561 and 0.8443 and 0.8519 and 0.8996 and 0.8605 and 0.8249 and 0.9015 and 0.9193 and 0.8494 and 0.6551 and 0.8032 and 0.7602 and 0.8055 and 0.9262 and 0.8985 and 1.016. The “Mean max response (normalized max ΔFRET)” value (mGluR2 [4]; azi-CRD, 1 mM glutamate + 10 μM modulator, normalized to 1 mM glutamate) was 0.86, the “Mean ΔPotency” value (mGluR2 [4]; azi-CRD, 10μM modulator, (([modulator + glutamate]EC50 – [glutamate] EC50)/[glutamate] EC50) × 100) was 19.3799 and the “ΔPotency, individual cell” value (mGluR2 [4]; azi-CRD, 10μM modulator, calculated from individual cell responses) was 8.099 and 2.046 and -1.414 and 21.9358 and 9.829 and 20.2062 and 22.8006 and -4.008 and 2.91 and 8.964 and 24.5302 and 18.4766 and 6.37 and 10.6935 and 59.9867 and 17.6119 and -18.5365 and 122.252 and 0.316 and -3.143 and -10.9263 and 95.4432 and 15.0175.
